This assay deals with CHO-CHOP luciferase reporter, UPR activation, luminescence. The assay is described as follows: activators of PERK-eIF2a-CHOP UPR arm, confirmation, CHO-CHOP cells, luciferase luminescence (AID 489024).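 Further: compounds added alone to reporter cells with no tunicamycin stress co-treatment.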

Activity calls are given as the source filed them.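 How the source made its calls: active means compounds whose mean EC50, the dose giving half the maximal reporter activation, is at or below a set limit; inactive means the rest.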

Consider `Nc1nc(CC(=O)CSc2ccc(Cl)cc2)nc(Nc2ccc(F)cc2)n1`, for which the EC50 result was “inactive”.
As for `CCOC(=O)CSc1cccc2cccnc12`, the EC50 was 11.4 µM.
As to `CCOC(=O)c1c(C)oc2c1c(C(c1ccccc1)N1CCOCC1)c(O)c1ccccc12` (configuration not stated), the EC50 is 18 µM.
For `Cc1noc2ncnc(Sc3ccc(Cl)cc3)c12`, the EC50 is 7.1 µM.
To `CCOC(=O)N1CCN(Cc2cc(Cl)c3cccnc3c2O)CC1` belongs “inactive”.
`CCOC(=O)C(CC)(CC)C(=O)/C=C/c1cccc(Br)c1`: the EC50 was 11.8 µM.
As for `O=C(c1ccc(Br)cc1)C(CN1CCOCC1)c1ccccc1` (configuration not stated), the EC50 is 8.78 µM.
For the compound `Cc1c(C#N)c(NC(=O)CCl)n(Cc2ccccc2)c1C`, the concentration for a half-maximal effect (EC50) was 14.4 µM.
To `CCc1cccc(CC)c1NC(=O)/C(C#N)=C/c1ccccc1C(F)(F)F` belongs > 80 µM (inactive); to `Oc1[nH]c2ccccc2c1N=NC(=S)N1CCOCC1`, 7.74 µM.
The figure for `CC(C)CNC(=O)c1coc(=O)c(Br)c1` is 12 µM; for `Cc1cccc(-n2ncc(Cl)c(Cl)c2=O)c1` it is 7.81 µM; for `CCc1ccc(NC(=O)C(CC)Sc2nc3cc4c(cc3c(=O)n2Cc2ccco2)OCO4)cc1` (configuration not stated) it is 14.9 µM.
To `Cc1ccc(C(C)C)c(OCc2ccc(C(=O)N/N=C/c3ccc(O)c(O)c3)cc2)c1` belongs > 80 µM (inactive); to `S=C(Nc1ccccc1)c1ccccn1`, 9.11 µM; to `C=C(C(=O)c1ccccc1)C(C(=C)C(=O)c1ccccc1)c1ccc(OC)cc1`, 15.3 µM.
For the compound `Cc1nc(SCC(=O)Nc2ccc(F)cc2)c(C#N)c(C)c1CC(=O)c1ccc(Br)cc1`, the EC50 was > 80 µM (inactive).
On to `Cc1ccc(N2CCN(c3ccc(NCc4nc5ccccc5n4C)cc3)CC2)cc1`, for which the EC50 result is “inactive”.
As to `Oc1c(C(c2ccccc2Cl)N2CCCC2)ccc2cccnc12` (configuration not stated), the EC50 is 5.76 µM.
Turning to `O=C(/C(=C\c1ccccc1)c1nc2ccccc2[nH]1)c1ccc(Cl)cc1`, the EC50 was 8.43 µM.
For `COc1ccccc1/C=N\Nc1cc(C)nc(-n2nc(C)cc2C)n1`, the EC50 is 13.9 µM.
To `COc1ccc(N2C(=O)/C(=C/c3cccs3)C(=O)NC2=S)cc1` belongs 9.09 µM; to `S=c1[nH]nc(-c2cc(-c3ccccc3)n[nH]2)n1/N=C/C(Br)=C/c1ccccc1`, 7.79 µM.
For the compound `S=C1SCN(CC2CC2)CN1CC1CC1`, the EC50 result is “inactive”.
Take `Oc1cc(-c2ccncc2)cc2cccnc12`: the EC50 is > 80 µM (inactive).
The figure for `O=C(Nc1ccc(S(=O)(=O)N2CCOCC2)cc1)c1ccc([N+](=O)[O-])o1` is 0.98 µM.
For `COc1ccc(CCn2c(C)cc(C(=O)CCl)c2C)cc1OC`, the EC50 is > 80 µM (inactive).
For the compound `O=C1C=CC(=O)C(C2=C3C(=O)N(CCc4ccccc4)CC(=O)N3CCC2)=C1`, the EC50 is 9.95 µM.
The figure for `CSc1nnc(NC(=O)c2nc(S(=O)(=O)Cc3ccccc3F)ncc2Cl)s1` is > 80 µM (inactive).
`O=C(Nc1ccc(N2CCOCC2)cc1)c1ccc([N+](=O)[O-])o1`: the EC50 was 4.64 µM.
Take `O=[N+]([O-])c1ccc(Sc2cccc3cccnc23)c([N+](=O)[O-])c1`: the EC50 is > 80 µM (inactive).
With `C/C(=N\NC(=O)c1cc(-c2cccs2)nc2ccccc12)c1ccccn1`, the EC50 was 4.97 µM.
In the case of `COc1ccccc1N1C(=O)C=C(Sc2nc(C)cc(C)n2)C1=O`, the EC50 was > 80 µM (inactive).
With `O=C1NC(=O)N(c2ccccc2)C(=O)/C1=C\C=C\c1ccccc1`, the EC50 was 4.5 µM.
For the compound `COc1cc(/C=C(/C#N)c2nc3ccccc3[nH]2)ccc1OCC(=O)Nc1ccccc1C(C)C`, the EC50 is 8.27 µM.
The figure for `CC(C)(C)C(=O)N1CCN(c2ccc(NC(=O)c3ccc([N+](=O)[O-])o3)cc2)CC1` is 0.75 µM; for `O=C(CSc1ccccn1)Nc1nonc1[N+](=O)[O-]` it is 19.1 µM.
Turning to `CC1CCN(Cc2c(C(=O)N/N=C/c3ccc(C(C)(C)C)cc3)nnn2-c2nonc2N)CC1`, the EC50 is 8.4 µM.
The figure for `CCOC(=O)/C(=C\c1cccc(O)c1)c1nc2sc(C)c(C)c2c(=O)[nH]1` is 13 µM; for `O=C(NCc1cccnc1)/C(=C\c1ccc(-c2ccc(Br)cc2)o1)S(=O)(=O)c1ccccc1` it is 6.67 µM; for `Cc1ccc(CS(=O)(=O)c2ncc(Cl)c(C(=O)Nc3nnc(C(C)C)s3)n2)cc1` it is > 80 µM (inactive).
Regarding `CCOC(=O)/C=c1\s/c(=C\c2ccc3cc(OC)ccc3c2)c(=O)n1CC(=O)NCC1CCCO1` (configuration not stated), the EC50 was 10.7 µM.
In the case of `Cc1noc2ncnc(Sc3ccc(Br)cc3)c12`, the EC50 was 9.31 µM.
To `Cc1ccn2cc(-c3ccc(O)c(O)c3)nc2c1` belongs 5.31 µM; to `FC(F)(F)c1nnc2c(Sc3ccc(Cl)cc3)nc3ccccc3n12`, 4.12 µM.
For the compound `Cc1ccc(C)c(NC(=O)/C(C#N)=C/c2cn(CC(=O)NCc3ccco3)c3ccccc23)c1`, the EC50 was > 80 µM (inactive).
In the case of `Cc1ccc2nc(-c3ccc(O)c(O)c3)cn2c1`, the EC50 was 3.6 µM.
For `Cn1nc(C(F)(F)F)c(/C=N/OC(=O)c2ccccc2)c1SCc1ccccc1Cl`, the EC50 result was “inactive”.
To `COc1ccc(-c2nc(-c3ccccc3)nc(Cl)c2C#N)cc1` belongs 13.5 µM; to `O=C(CCl)Nc1ccc(-c2ccccc2)cc1`, > 80 µM (inactive).
To `Cc1ccc(S/C=C\C(=O)c2ccccc2)cc1` belongs > 80 µM (inactive).
For the compound `Oc1ccc(-c2cn3ccccc3n2)cc1O`, the EC50 result is “inactive”.
As to `CCCCCCCCCCn1c2c(c(=N)c3c1CCC3)CCC2`, the EC50 was 14.1 µM.
Consider `Cc1cccc(N=Nc2ccc(O)c3ncccc23)c1`, for which the concentration giving a half-maximal response (EC50) is 7.28 µM.
`CCc1cccc2sc(N3CCN(C(=O)c4ccc([N+](=O)[O-])o4)CC3)nc12`: the EC50 is 10.5 µM.
The figure for `CCN1CSC(=S)N(Cc2ccccc2)C1` is 8.48 µM.
To `COc1cccc(/C=N/Nc2nc(Nc3ccccc3)nc(-n3nc(C)cc3C)n2)c1O` belongs 4.28 µM; to `O=C(Nc1nc(-c2ccccn2)cs1)c1cc(Cl)ccc1[N+](=O)[O-]`, 6.29 µM.
With `C/C(=N/NC(=O)c1ccc(C(C)(C)C)cc1)c1ccccn1`, the EC50 was 2.88 µM.
Consider `COc1cc(OC)cc(C(=O)NC(=S)Nc2cc3oc4ccccc4c3cc2OC)c1`, for which the EC50 result is “inactive”.
The figure for `Cc1nc([N+](=O)[O-])c(Br)n1CC(=O)c1ccc2ccccc2c1` is > 80 µM (inactive); for `O=C(Nc1nc(-c2ccccn2)cs1)c1ccc(Br)s1` it is 8.23 µM.
The figure for `CN(C(=O)CSc1cc(C(=O)c2nccn2C)c2ccccc2n1)c1ccccc1` is 7.96 µM; for `COc1ccc2c(C(=O)CCl)c[nH]c2c1` it is 6.36 µM; for `COc1cc(C(=O)Sc2ccc(Cl)cc2)cc(OC)c1OC` it is 15 µM.
To `CCOC(=O)c1sc(N(Cc2ccccc2)C(=O)CCl)nc1C` belongs 7.96 µM.
With `CCC(=O)Nc1ccc(C(=O)Cn2ncc(Cl)c(Cl)c2=O)cc1`, the EC50 is 13.7 µM.
Take `COc1cc(/C=C2\CC(C(C)(C)C)C/C(=C\c3cc(OC)c(OC)c(OC)c3)C2=O)cc(OC)c1OC` (configuration not stated): the EC50 was 6.19 µM.
Turning to `O=C(/C=C/c1ccc(O)c(O)c1)OCCc1ccccc1`, the half-maximal effective concentration (EC50) is 0.89 µM.
On to `Cc1cccc(C)c1NC(=O)C(Cl)C(=O)c1ccccc1` (configuration not stated), for which the EC50 is 19.3 µM.
For the compound `Cc1cc(C(=O)CCl)c(C)n1CCc1ccc(Cl)cc1`, the concentration giving a half-maximal response (EC50) was 7.15 µM.
Take `CCc1ccc(-n2c(SCC(=O)c3ccc4c(c3)NC(=O)CO4)nc3ccccc3c2=O)cc1`: the EC50 was 12.9 µM.
On to `Cc1cccc(OCCN2CSC(=S)N(C)C2)c1`, for which the EC50 was > 80 µM (inactive).
To `Cc1ccc(C(=O)Oc2ccc(Cl)c3cccnc23)cc1[N+](=O)[O-]` belongs “inactive”.
Regarding `COc1ccc(C(C[N+](=O)[O-])n2nc(C)cc2C)cc1` (configuration not stated), the half-maximal effective concentration (EC50) is 9.15 µM.
For `COc1cccc2sc(Nc3nc(-c4ccccn4)cs3)nc12`, the EC50 was 1.65 µM.
Regarding `Cc1nn(Cc2c(Cl)cccc2Cl)c(C)c1NC(=O)c1cn(-c2ccccc2)nc1-c1ccccc1`, the EC50 is 7.37 µM.
For `Nc1c(C(=O)Nc2ccc(S(=O)(=O)N3CCCC3)cc2)sc2nc3ccc(OC(F)(F)F)cc3cc12`, the EC50 is > 80 µM (inactive).
`COc1ccc(CC2=CC(=O)c3ccccc3C2=O)cc1`: the EC50 was 12.4 µM.
The figure for `CC[C@@H](C)[C@H](NC(=O)OC(C)(C)C)c1nnc(S(=O)(=O)Cc2cc(C)ccc2C)o1` is 15.5 µM.
Turning to `COc1ccc2cc(C)c3nnc(SCC(=O)Nc4nc(-c5ccc(F)cc5)cs4)n3c2c1`, the EC50 was 10.7 µM.
Consider `COc1ccc(OC)c(N=Cc2c(O)c3ccccc3oc2=O)c1`, for which the concentration for a half-maximal effect (EC50) is 7.55 µM.
The figure for `O=[N+]([O-])c1ccc(C=Nc2ccc(Cl)cc2Cl)s1` is 13.9 µM.
With `CC(=O)/C(=C/c1ccccc1)C(=O)Nc1ccccc1C`, the EC50 result was “inactive”.
For `CS(=O)(=O)c1nc(-c2ccc(Br)cc2)cc(-c2ccccc2)c1C#N`, the EC50 was 5.12 µM.
Take `COC(=O)c1c(NC(=O)CC2Nc3ccccc3NC2=O)sc(C)c1C` (configuration not stated): the EC50 entry was “inactive”.
As to `CCCCC(CC)CN=C(N)NC(N)=NCCCCCCN=C(N)NC(N)=NCC(CC)CCCC` (configuration not stated), the EC50 was > 80 µM (inactive).
Take `O=c1c2c3c(sc2ncn1/N=C/c1ccc([N+](=O)[O-])o1)CCCC3`: the EC50 was 7.01 µM.
To `O=C(Nc1ccc(Cc2ccncc2)cc1)c1ccc([N+](=O)[O-])o1` belongs 1.54 µM.
For `COc1cc(/C=C/[N+](=O)[O-])ccc1O`, the EC50 was > 80 µM (inactive).
The figure for `CC1=C(CC/C(C)=N/NC(N)=S)C(C)(C)CCC1` is 19.8 µM; for `COc1cc2nc(=S)n3[nH]c(CCn4nc(C)cc4C)nc3c2cc1OC` it is 3.93 µM; for `C=CCN=c1scc(-c2ccco2)n1/N=C/c1ccc(O)c(O)c1O` it is “inactive”.
Take `Cc1cc(NC(=O)CCS(=O)(=O)c2nc(-c3ccccc3)cc(C(F)(F)F)n2)no1`: the 50% effective concentration (EC50) is 7.4 µM.
For the compound `O=C(N/N=C/c1ccccn1)c1cc(-c2ccc(Cl)cc2)nc2ccccc12`, the EC50 was 2.51 µM.
On to `O=C(CCl)N1N=C(c2cccs2)CC1c1ccco1` (configuration not stated), for which the EC50 was > 80 µM (inactive).
On to `Brc1ccccc1CN1CCN(Cc2c[nH]c3ccccc23)CC1`, for which the EC50 is 7.72 µM.

The values above are taken from PubChem BioAssay AID489024 (Sanford-Burnham Center for Chemical Genomics, 2010).
